Patent US20090010923A1, “TREATMENT OF CANCER WITH ANTI-MUSCARINIC RECEPTOR AGENTS” (University of Maryland, Baltimore, priority 2007, published 2009)
“Also recorded” adds a separate entry of the source.

Columns and labels:
H508 cells [1] = experiment: p44/42 MAPK phosphorylation/activation in H508 colon cancer cells; assay type: cell-based, human
Description: (§1) In H508 colon cancer cells, acetylcholine (ACh) activates p44/42 MAPK and p90RSK, which is a nuclear response protein that regulates gene expression and the cell cycle.

[2] = tested on: CHO cells expressing rat M3R (CHO-rM3R); experiment: p44/42 MAPK phosphorylation in CHO cells expressing rat M3R; assay type: cell-based
Description: as §1

WT and M3R−/− mice = experiment: AOM murine colon cancer model (WT and M3R-/- mice); assay type: in vivo, mouse; conditions: for colon tumor number: 20 weeks
Protocol: WT and M3R^−/− male mice (129S6/SvEvTac×CFl; 50%/50%) were treated for 6 wks in which 48 animals received weekly intraperitoneal (ip) PBS (control) or AOM (10 mg/kg). The AOM mouse model is a well-established, commonly used model that mimics human colon carcinogenesis. AOM, an intermediate in the metabolism of 1,2-dimethylhydrazine to the alkylating ion methyldiazonium, is a well-known colorectal-specific pro carcinogen. AOM-induced rodent tumors mimic human colon cancer in that most tumors arise in the colon, form grossly visible exophytic polypoid or plaque-like growths, and have a microscopic appearance similar to that of human lesions. Molecular changes in AOM-induced tumors, including β-catenin and p53 mutations, which also mimic those in human colon cancer. […] Short-term study end-points are identified (e.g. aberrant crypt foci (ACF), β-catenin-accumulating crypts (BCAC) and BrdUrd staining) and potential toxicity was evaluated, a smaller group of mice is euthanized early, upon completion of AOM treatment. During the study, WT and M3R^−/− mice were given weekly (for 6 weeks) intraperitoneal (ip) PBS (control; n=10 WT-PBS mice) or AOM (10 mg/kg; n=22 WT-AOM and 16 WT and M3R^−/−-AOM mice). […] Animals were housed under identical conditions and fed standard mouse chow. Mice were weighed weekly, observed for evidence of tumor formation (e.g., anal bleeding) and euthanized at 20 weeks. Colon length was measured, segments opened longitudinally, and tumors identified and photographed using a Nikon SMZ1500 dissecting microscope. Tumor number and diameter were measured using Image-Pro software and tumor volume was calculated: vol=½ width×length^2. Two hours before euthanasia, mice received intraperitoneal injection of BrdU (Sigma-Aldrich) (50 mg/kg) to label S-phase cells, a marker of proliferation. BrdU labeling was determined after immunostaining with anti-BrdU antibody (BD Bioscience) by counting BrdU-positive nuclei in 1000 cells (data expressed as percent of total cells that were BrdU-positive). As a marker of apoptosis, we used immunostaining with anti-activated caspase-3 antibody (Cell Signaling Technology). Only complete crypts were evaluated and investigators were masked to treatment group. For analysis of both BrdU and activated caspase-3 staining, only tissue from the distal half of the colon was examined.

H508 cells [3] = experiment: Cell proliferation, sulforhodamine B (SRB) colorimetric assay, H508 cells; assay type: cell-based, human; conditions: 5 days, 37° C.; for proliferation of H508 cells: alone, cells co-express M3R and EGFR
Protocol: (§2) FIG. 1 depicts bile acid-induced colon cancer cell proliferation which requires M3R expression and activation in H508 and SNU-C4 cells. […] Cell proliferation was determined using the sulforhodamine B (SRB) colorimetric assay. Mean±SEM of 3 exp.
(§3) Cells that are known to express both EGFR and M3R were treated with several M3R antagonists and bile acid conjugates to determine if M3R ligand binding affected EGFR activation. […] Cell proliferation was determined using the sulforhodamine B (SRB) colorimetric assay. […] Mean±SEM of 3 exp.
MAPK activation was detected with 10 μM and maximal with 300 μM DCT. […] DCT-induced MAPK activation is rapid and reversible. MAPK activation is detected within 1 min, maximal by 10-20 min and returns to basal by 70 min. Collectively these findings emphasize the importance of co-expression of M3R and EGFR for both ACh- and bile acid-induced colon cancer cell proliferation, and define relevant DCT concentrations.

SNU-C4 cells = experiment: Cell proliferation, sulforhodamine B (SRB) colorimetric assay, SNU-C4 cells; assay type: cell-based, human; conditions: 5 days, 37° C., alone; cells express EGFR but not M3R
Protocol: as §2, §3

colon cancer cells [4] = experiment: Post-EGFR PI3K/Akt and GSK-3 signaling in colon cancer cells; assay type: cell-based
Description: The rationale for including both murine colon cancer models in this study is to observe important differences between these cancer models. Although the Apc^Min/+ genotype mimics more closely the human condition (e.g. FAP), the AOM-treated mouse phenotype is more similar to human colon cancer. […] Additionally, Apc^Min/+ mice provide an opportunity to study the relationship between M3R and activation and expression of genes in the Wnt/β-catenin signaling pathway. Binding of Wnt to its cell surface receptor (Frizzled) leads to activation of β-catenin (nuclear translocation and binding to Tcf/LEF, resulting in transcription of important target genes, including cyclin D1). Apc, is a scaffold protein that promotes GSK-3α/β-mediated phosphorylation of β-catenin; phosphorylated β-catenin is targeted for proteosomal degradation, thereby preventing nuclear translocation and pro-proliferative gene transcription. Mutated Apc in Apc^Min/+ mice results in reduced β-catenin phosphorylation, thereby promoting nuclear translocation and pro-proliferative actions. […] These findings provide strong evidence that bile acid-activated M3R signaling can promote pro-proliferative actions of β-catenin. The Apc^Min/+ mouse provides an excellent model to elucidate the role of M3R activation and expression in Wnt/β-catenin signaling.
(§4) apoptosis, or both. Deoxycholic acid induces apoptosis.

colon cancer cells [5] = experiment: Caspase-3 activation (apoptosis) in colon cancer cells; assay type: cell-based
Description: as §4

[6] = tested on: muscarinic receptors on gastric chief cells; experiment: Pepsinogen secretion from gastric chief cells; assay type: cell-based
[7] = tested on: muscarinic receptors on gastric chief cells; experiment: Competition for binding with a muscarinic radioligand, gastric chief cells
[8] = tested on: muscarinic receptors on gastric chief cells; experiment: IP formation, gastric chief cells; assay type: cell-based
[9] = cited from earlier work
M1R and M3R = tested on: M1R and M3R
Description: Muscarinic receptor subtypes were expressed in murine gastric chief cells using M1R^−/−, M3R^−/− and M1/3R^−/− mice. […] The mice were generated using gene targeting.

Compound: CC(=O)OCC[N+](C)(C)C [ACh, acetylcholine]
- ACh-induced p44/42 MAPK phosphorylation (H508 cells [1]; H508 cells): 14 fold
- ACh-induced p44/42 MAPK phosphorylation [2]: 27 fold

Compound: CN=[N+](C)[O-] [AOM, azoxymethane]
- BrdU-positive cells in colon epithelium (WT and M3R−/− mice; AOM-treated M3R-/- mice): 7.2±0.9%
- adenocarcinomas/mouse (WT and M3R−/− mice; AOM-treated M3R-/- mice): 0.6±0.1
- mice with adenomas (WT and M3R−/− mice; AOM-treated M3R-/- mice): 6%
- tumor volume (WT and M3R−/− mice; AOM-treated M3R-/- mice): 8.1±1.5 mm^3
- colon tumor number (WT and M3R−/− mice; AOM-treated M3R-/- mice): 3.2±0.3 tumors/colon
- BrdU-positive cells in colon epithelium (WT and M3R−/− mice; AOM-treated WT mice): 16.6±4.0%
- adenocarcinomas/mouse (WT and M3R−/− mice; AOM-treated WT mice): 1.7±0.4
- mice with adenomas (WT and M3R−/− mice; AOM-treated WT mice): 36%
- tumor volume (WT and M3R−/− mice; AOM-treated WT mice): 20.3±4.1 mm^3
- increase in BrdU-positive epithelial cells (WT and M3R−/− mice; AOM-treated WT mice vs PBS-treated WT, 10 mg/kg ip weekly x 6 wks, 20 wks): 5 fold
- colon tumor number (WT and M3R−/− mice; AOM-treated WT mice): 5.3±0.5 tumors/colon
- number of apoptotic cells (activated caspase-3) (WT and M3R−/− mice; PBS-treated WT, AOM-treated WT and M3R-/- mice): no significant difference
- increase in tumors/animal (WT and M3R−/− mice; WT mice treated with AOM): 5 fold

Compound: C[C@H](CCC(=O)NCC(=O)O)[C@H]1CC[C@H]2[C@@H]3CC[C@@H]4C[C@H](O)CC[C@]4(C)[C@H]3C[C@H](O)[C@]12C [DCG]
- proliferation of H508 cells (H508 cells [3]): stimulate proliferation
- proliferation of SNU-C4 cells (SNU-C4 cells): do not significantly alter proliferation

Compound: C[C@H](CCC(=O)NCCS(=O)(=O)O)[C@H]1CC[C@H]2[C@@H]3CC[C@@H]4C[C@H](O)CC[C@]4(C)[C@H]3C[C@H](O)[C@]12C [DCT, Deoxycholyltaurine]
- DCT concentration at which MAPK activation was detected (H508 cells [1]): 10 µM
- DCT concentration at which MAPK activation was maximal (H508 cells [1]): 300 µM
- time at which MAPK activation is detected (H508 cells [1]): ≤ 1 min
- time at which MAPK activation returns to basal (H508 cells [1]): ≤ 70 min
- time of maximal MAPK activation (H508 cells [1]): 10 to 20 min
- proliferation of H508 cells (H508 cells [3]): stimulate proliferation; also recorded: stimulated after 5 days
- phosphorylation of GSK-3α/β (colon cancer cells [4]; colon cancer cells): stimulates an inactivating phosphorylation
- post-EGFR PI3K/Akt signaling (colon cancer cells [4]; preliminary studies): activates
- DCT-induced apoptosis (caspase-3 activation) (colon cancer cells [5]): no evidence of DCT-induced apoptosis
- proliferation of SNU-C4 cells (SNU-C4 cells): do not significantly alter proliferation

Compound: C[C@H](CCC(=O)NCCS(=O)(=O)O)[C@H]1CC[C@H]2[C@@H]3CC[C@@H]4C[C@H](O)CC[C@]4(C)[C@H]3CC[C@]12C [LCT, lithocholyltaurine]
- pepsinogen secretion [6]: stimulating pepsinogen secretion
- competition for binding with a muscarinic radioligand [7]: competed for binding
- proliferation of H508 cells (H508 cells [3]): stimulate proliferation
- IP formation [8]: increased IP formation
- proliferation of SNU-C4 cells (SNU-C4 cells): do not significantly alter proliferation

Compound: CN1[C@@H]2CC[C@H]1C[C@@H](OC(=O)C(CO)c1ccccc1)C2 (stereo partly drawn) [atropine]
- inhibition of the actions of LCT [6]: inhibited the actions of LCT
- inhibition of actions of DCT on H508 proliferation (H508 cells [3]; with DCT): inhibited

Compound: CCCC[N+]1(C)[C@@H]2C[C@@H](OC(=O)[C@H](CO)c3ccccc3)C[C@H]1[C@@H]1O[C@@H]12 (stereo partly drawn) [scopolamine butylbromide]
- activity of metabolites ([9]; in vivo): inactive
- half-life of the terminal elimination phase ([9]; in vivo): about 5 hr
- protein binding ([9]; in vivo): low
- blood-brain barrier crossing ([9]; quaternary ammonium derivative): does not cross the blood-brain barrier

Compound: NCCS(=O)(=O)O [taurine]
- pepsinogen secretion [6]: did not alter
- competition for binding with a muscarinic radioligand [7]: did not alter
- IP formation [8]: did not alter

Compound: cholecystokinin [cholecystokinin (CCK)]
- agonist-induced pepsinogen secretion (M1R and M3R): not altered

Compound: cholyltaurine
- pepsinogen secretion [6]: did not alter
- competition for binding with a muscarinic radioligand [7]: did not alter
- IP formation [8]: did not alter
